Laboratory results published in PMC11992225, “Antibacterial compounds against non-growing and intracellular bacteria” (npj Antimicrobials and Resistance, 2025).
Converted amounts (≈) assume the structure as drawn. Like-named read-outs stand apart in the source and are kept apart here.

Tests used:
P. aeruginosa DSM1117 = assay: MIC, standard microdilution assay, growing P. aeruginosa; assay type: cell-based, Pseudomonas aeruginosa; details: Pseudomonas aeruginosa, DSM1117, P. aeruginosa
In short: (§1)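 Each strain was exposed to serially diluted compound in broth, in triplicate. The media were TSB for Shigella; CA-MHB at pH 7.4 (HEPES 40 mM) for S. aureus, P. aeruginosa and UPEC; and, for UPEC only, low-pH LPM (pH 5.5, 30 mM MES).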

S. flexneri 5a M90T = assay: MIC in tryptic soy broth, S. flexneri; assay type: cell-based, Shigella flexneri; details: Shigella flexneri, 5AM90T, read-out: MIC (μM) TSB
In short: as §1

S. aureus DSM2569 = assay: MIC, standard microdilution assay, growing S. aureus; assay type: cell-based, Staphylococcus aureus; details: Staphylococcus aureus, DSM2569; S. aureus; CA-MHB pH 7.4; read-out: MIC (μM) CA-MHB
In short: as §1

[1] = tested on: non-growing P. aeruginosa DSM1117; assay: Dilution-regrowth assay (OD600, start-growth-time) on stationary-phase P. aeruginosa; assay type: cell-based, Pseudomonas aeruginosa; details: P. aeruginosa; for Regrowth, OD600 at 6h or 8h after dilution into drug-free medium: average; for EC50: Pseudomonas aeruginosa, DSM1117, regrowth delay of non-growing bacteria, 1:4 CA-MHB pH 7.4, 24 h treatment, OD600 8 h after dilution, read-out: EC50
Experimental: To determine the spectrum of activity of the compounds that were effective against non-growing UPEC, we further assessed their efficacy against the well-characterized Gram-negative and Gram-positive reference strains P. aeruginosa DSM1117 and S. aureus DSM2569, respectively. The cultures were grown and treated for 24 h in 1:4 CA-MHB (pH 7.4). […].
For better characterization of the compounds causing the strongest regrowth delay, we performed the regrowth step of the dilution-regrowth experiments on a plate reader, measuring the OD600 at 20-min intervals for over 20 h instead of using an endpoint measurement. This approach allowed us to capture the time when cultures reached a threshold optical density (start-growth-time, SGT[15]).
Overnight cultures of UPEC, P. aeruginosa and S. aureus were grown in test tubes containing 3 ml of LB broth (~16 h), then diluted 1:100 into either 1:4 diluted CA-MHB medium buffered with 40 mM HEPES (pH 7.4) or, in case of UPEC, into LPM medium[25] supplemented with 49 µM MgCl2 and buffered with 30 mM MES (pH 5.5). The cultures were incubated for 24 h in non-baffled Erlenmeyer flasks at 37 °C with shaking at 200 rpm.
For P. aeruginosa and S. aureus, dose–response analysis was conducted in 96-well plates with a 200 μl assay volume, following the procedure used for screening assay validation experiments. Aliquots of the 39 compounds active against non-growing UPEC were obtained from SelleckChem and MedChem Express. Stock solutions were prepared and stored according to the manufacturers’ instructions, then diluted in 10% DMSO before use. Cultures were incubated for 24 h in 1:4 diluted CA-MHB medium under the same conditions used for UPEC cultivation. In preliminary experiments, each compound was tested at a concentration of 20 μM in the dilution-regrowth assay with 4 technical replicates. Regrowth was monitored using a microplate reader at 37 °C with continuous shaking, and OD600 was recorded every 20 min. The time at which OD600 exceeded the threshold of 0.12 was recorded as the Start_Growth-Time.
The statistical analysis of all data, as well as EC50 and IC50 determination, was conducted using GraphPad Prism 10.2.3. Statistical significance of the drug effects was assessed using a one-way ANOVA followed by Dunnett’s test, comparing each treatment to the drug-free control. Statistical significance of the differences in chemical characteristics between the hit compounds and the Prestwick library was assessed using a Mann–Whitney test. Statistical significance was set at P ≤ 0.05. A five-parameter logistic equation was used for asymmetric sigmoidal curve fitting and for EC50 and IC50 determination. The Venn diagram in Fig. 1F was prepared using BioVenn web application. Characteristics of the chemical and physical properties of Prestwick library compounds were obtained from Supplementary Table S1 from reference. Characteristics of the hit compounds not included in the Prestwick library were retrieved from the PubChem database.

non-growing UPEC CFT073 = assay: Dilution-regrowth assay (screen, hit validation, dose-response) on stationary-phase UPEC; assay type: cell-based, Escherichia coli; details: for Regrowth, OD600 at 6h or 8h after dilution into drug-free medium: average; for EC50: Escherichia coli, E. coli, pH 7.4, regrowth delay of non-growing bacteria, 1:4 CA-MHB, 24 h treatment, OD600 6 h after 2500-fold dilution, read-out: EC50
In short: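 Regrowth (OD600 after 6 h, 37 °C) of diluted non-growing CFT073, following 24 h compound treatment of 24 h stationary cultures, defines activity relative to untreated control. Screen at 20 µM, validation at 20, 10, 5 µM (duplicates), dose–response in three biological replicates fitted by five-parameter logistic.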

E. coli CFT073 (UPEC) = assay: MIC, standard microdilution assay, growing UPEC; assay type: cell-based, Escherichia coli; details: Escherichia coli, E. coli
In short: as §1

[2] = CA-MHB pH 7.4, read-out: MIC (μM) CA-MHB
[3] = E. coli in 1:4 CA-MHB (pH 7.4), concentration 1
[4] = E. coli in 1:4 CA-MHB (pH 7.4), concentration 2.5
[5] = E. coli in 1:4 CA-MHB (pH 7.4), concentration 5
[6] = E. coli in 1:4 CA-MHB (pH 7.4), concentration 10
[7] = E. coli in 1:4 CA-MHB (pH 7.4), concentration 30
[8] = E. coli in LPM (pH 5.5), concentration 1
[9] = E. coli in LPM (pH 5.5), concentration 2.5
[10] = E. coli in LPM (pH 5.5), concentration 5
[11] = E. coli in LPM (pH 5.5), concentration 10
[12] = E. coli in LPM (pH 5.5), concentration 30
[13] = pH 7.4, CA-MHB, read-out: MIC (μM) CA-MHB

SMILES	MIC (P. aeruginosa DSM1117; [2]) [µM]	MIC (S. flexneri 5a M90T) [µM]	MIC (S. aureus DSM2569) [µM]	Regrowth, OD600 at 6h or 8h after dilution into drug-free medium ([1]; concentration 2.5)	Regrowth, OD600 at 6h or 8h after dilution into drug-free medium ([1]; concentration 10)	EC50 [1] [nM]	Regrowth, OD600 at 6h or 8h after dilution into drug-free medium (non-growing UPEC CFT073; [3])	Regrowth, OD600 at 6h or 8h after dilution into drug-free medium (non-growing UPEC CFT073; [4])	Regrowth, OD600 at 6h or 8h after dilution into drug-free medium (non-growing UPEC CFT073; [5])	Regrowth, OD600 at 6h or 8h after dilution into drug-free medium (non-growing UPEC CFT073; [6])	Regrowth, OD600 at 6h or 8h after dilution into drug-free medium (non-growing UPEC CFT073; [7])	Regrowth, OD600 at 6h or 8h after dilution into drug-free medium (non-growing UPEC CFT073; [8])	Regrowth, OD600 at 6h or 8h after dilution into drug-free medium (non-growing UPEC CFT073; [9])	Regrowth, OD600 at 6h or 8h after dilution into drug-free medium (non-growing UPEC CFT073; [10])	Regrowth, OD600 at 6h or 8h after dilution into drug-free medium (non-growing UPEC CFT073; [11])	Regrowth, OD600 at 6h or 8h after dilution into drug-free medium (non-growing UPEC CFT073; [12])	EC50 (non-growing UPEC CFT073) [nM]	MIC (E. coli CFT073 (UPEC); [13]) [µM]	also measured
COc1c(N2C[C@@H]3CCCN[C@@H]3C2)c(F)cc2c(=O)c(C(=O)O)cn(C3CC3)c12 [Moxifloxacin]	8 (≈ 3.21 µg/mL)	0.0625 (≈ 0.0251 µg/mL)	0.125 (≈ 0.0502 µg/mL)	0.094	0.093	264	0.120	0.067	0.066	0.068	0.065	0.570	0.577	0.574	0.567	0.530	649	0.125 (≈ 0.0502 µg/mL)	Regrowth, OD600 at 6h or 8h after dilution into drug-free medium ([1]; concentration 0.1): 0.549; Regrowth, OD600 at 6h or 8h after dilution into drug-free medium ([1]; concentration 0.5): 0.215; Regrowth, OD600 at 6h or 8h after dilution into drug-free medium (non-growing UPEC CFT073; E. coli in 1:4 CA-MHB (pH 7.4), concentration 0.25): 0.565; Regrowth, OD600 at 6h or 8h after dilution into drug-free medium (non-growing UPEC CFT073; E. coli in 1:4 CA-MHB (pH 7.4), concentration 0.5): 0.481; Regrowth, OD600 at 6h or 8h after dilution into drug-free medium (non-growing UPEC CFT073; E. coli in LPM (pH 5.5), concentration 0.25): 0.577; Regrowth, OD600 at 6h or 8h after dilution into drug-free medium (non-growing UPEC CFT073; E. coli in LPM (pH 5.5), concentration 0.5): 0.563
Cc1oc(=O)oc1CN1CCN(c2cc3c(cc2F)c(=O)c(C(=O)O)c2n3C(C)S2)CC1 (centres unmarked) [Prulifloxacin]	1 (≈ 0.461 µg/mL)	0.0312 (≈ 0.0144 µg/mL)	4 (≈ 1.85 µg/mL)	0.094	0.095	97	0.198	0.109	0.093	0.094	0.092	0.586	0.570	0.549	0.564	0.416	571	0.025 (≈ 0.0115 µg/mL)	MIC (P. aeruginosa DSM1117; 1:4 diluted CA-MHB pH 7.4, read-out: MIC (μM) 1:4 CA-MHB): 1 µM (≈ 0.461 µg/mL); MIC (E. coli CFT073 (UPEC); LPM pH 5.5, read-out: MIC): 0.125 µM (≈ 0.0577 µg/mL)
